Source: patent US11535598B2, “Histone deacetylases (HDACs) inhibitors” (ANNJI PHARMACEUTICAL CO., LTD., priority 2017, dated 2022)

Columns and labels:
[1] = target: Human HDAC6 (Homo sapiens (Human), UniProt Q9UBN7); assay: HDAC enzymatic assay, HDAC6; format: biochemical; settings: 10-dose IC50 mode with a 3-fold serial dilution; read-out: HDAC subtypes IC50 HDAC6
Description: (§1) The IC50 values for aforementioned compounds against HDACs were determined. HDAC 1 to 11 can be assayed by using acetylated AMC-labeled peptide substrate.
(§2) Human HDAC1 GenBank Accession No. NM_004964): Full length with C-terminal GST tag, MW=79.9 kDa, Human HDAC2 (GenBank Accession No. Q92769): Full length with C-terminal His tag, MW=60 kDa. Human HDAC3/NcoR2 (GenBank Accession No. […] for HDAC3, GenBank Accession No. NM_006312 for NcoR2): Complex of human HDAC3, full length with C-terminal His tag, MW=49.7 kDa, and human NCOR2, N-terminal GST tag, MW=39 kDa. Human HDAC6 (GenBank Accession No. BC069243): Full length with N-terminal GST tag, MW=159 kDa. Human HDAC8 (GenBank Accession No. NM018486): Full length, MW=42 kDa, expressed in an E. coli expression system.
(§3) Human HDAC1, Human HDAC2, Human HDAC3/NcoR2, Human HDAC6, Human HDAC10, and Human HDAC11 were all expressed by baculovirus expression system in Sf9 cells.
(§4) 50 μM HDAC substrate. 1% DMSO final. Incubation for 2 hours at 30° C.

[2] = target: Human HDAC1 (Homo sapiens (Human), UniProt Q13547); assay: HDAC enzymatic assay, HDAC1; format: biochemical; settings: 10-dose IC50 mode with a 3-fold serial dilution; read-out: HDAC subtypes IC50 HDAC1
Human HDAC1, sequence (Q13547 whole entry): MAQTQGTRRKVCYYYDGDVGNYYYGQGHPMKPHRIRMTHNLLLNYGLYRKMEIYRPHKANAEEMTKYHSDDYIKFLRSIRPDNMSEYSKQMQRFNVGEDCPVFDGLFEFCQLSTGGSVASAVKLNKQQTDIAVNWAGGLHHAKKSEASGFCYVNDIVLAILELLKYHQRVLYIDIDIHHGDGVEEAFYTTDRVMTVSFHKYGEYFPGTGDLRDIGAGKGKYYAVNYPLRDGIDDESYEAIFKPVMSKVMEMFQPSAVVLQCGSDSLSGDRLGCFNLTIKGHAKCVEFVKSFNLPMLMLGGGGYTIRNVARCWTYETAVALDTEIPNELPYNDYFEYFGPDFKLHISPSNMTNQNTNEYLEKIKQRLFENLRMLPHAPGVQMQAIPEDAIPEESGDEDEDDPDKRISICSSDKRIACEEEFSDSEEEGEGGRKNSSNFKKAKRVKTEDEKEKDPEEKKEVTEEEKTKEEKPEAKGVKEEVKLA
Description: as §1, §2, §3, §4

[3] = target: Human HDAC11 (Homo sapiens (Human), UniProt Q96DB2); assay: HDAC enzymatic assay, HDAC11; format: biochemical; settings: 10-dose IC50 mode with a 3-fold serial dilution; read-out: HDAC subtypes IC50 HDAC11
Human HDAC11, sequence (Q96DB2 whole entry): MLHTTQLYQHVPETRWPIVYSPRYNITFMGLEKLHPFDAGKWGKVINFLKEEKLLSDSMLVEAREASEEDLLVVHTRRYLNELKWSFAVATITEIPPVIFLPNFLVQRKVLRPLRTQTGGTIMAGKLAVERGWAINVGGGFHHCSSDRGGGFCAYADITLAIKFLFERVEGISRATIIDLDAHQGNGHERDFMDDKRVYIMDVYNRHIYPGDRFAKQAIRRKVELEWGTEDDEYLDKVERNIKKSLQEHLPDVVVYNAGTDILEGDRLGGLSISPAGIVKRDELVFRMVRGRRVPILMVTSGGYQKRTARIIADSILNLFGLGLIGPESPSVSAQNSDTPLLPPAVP
Description: as §1, §2, §3, §4

[4] = target: Human HDAC8 (Homo sapiens (Human), UniProt Q9BY41); assay: HDAC enzymatic assay, HDAC8; format: biochemical; settings: 10-dose IC50 mode with a 3-fold serial dilution; read-out: HDAC subtypes IC50 HDAC8
Human HDAC8, sequence (Q9BY41 whole entry): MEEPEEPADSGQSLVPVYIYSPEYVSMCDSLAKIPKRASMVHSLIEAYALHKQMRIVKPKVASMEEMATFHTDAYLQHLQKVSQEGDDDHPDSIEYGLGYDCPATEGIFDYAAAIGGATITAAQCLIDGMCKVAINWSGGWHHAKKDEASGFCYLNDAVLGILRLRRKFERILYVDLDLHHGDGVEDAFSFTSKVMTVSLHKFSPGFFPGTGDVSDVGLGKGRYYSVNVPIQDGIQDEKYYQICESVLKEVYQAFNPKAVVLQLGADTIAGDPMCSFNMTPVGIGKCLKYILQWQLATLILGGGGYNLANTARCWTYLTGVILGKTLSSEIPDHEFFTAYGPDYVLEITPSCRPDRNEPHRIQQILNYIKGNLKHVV
Description: as §1, §2, §4

[5] = in vitro; settings: monkey
[6] = in vitro; settings: human
[7] = test system: A549; settings: human, 72 h
[8] = test system: HepG2; settings: human, 72 h
[9] = test system: U87MG; settings: human, 72 h
[10] = test system: LNCap; settings: human, 72 h
[11] = test system: PANC1; settings: human, 72 h
[12] = test system: HL60; assay: Cell proliferation assay MTT, HL60; settings: read-out: Cytotoxicity IC50 Leukemia HL60, 72 hr treated
[13] = test system: MV4-11; assay: Cell proliferation assay MTT, MV4-11; settings: human, MV4-11 leukemia cells, 72 h
[14] = test system: MOLM13; assay: Cell proliferation assay MTT, MOLM13; settings: human, MOLM13 leukemia cells, 72 h

Human HDAC6, sequence (Q9UBN7 whole entry): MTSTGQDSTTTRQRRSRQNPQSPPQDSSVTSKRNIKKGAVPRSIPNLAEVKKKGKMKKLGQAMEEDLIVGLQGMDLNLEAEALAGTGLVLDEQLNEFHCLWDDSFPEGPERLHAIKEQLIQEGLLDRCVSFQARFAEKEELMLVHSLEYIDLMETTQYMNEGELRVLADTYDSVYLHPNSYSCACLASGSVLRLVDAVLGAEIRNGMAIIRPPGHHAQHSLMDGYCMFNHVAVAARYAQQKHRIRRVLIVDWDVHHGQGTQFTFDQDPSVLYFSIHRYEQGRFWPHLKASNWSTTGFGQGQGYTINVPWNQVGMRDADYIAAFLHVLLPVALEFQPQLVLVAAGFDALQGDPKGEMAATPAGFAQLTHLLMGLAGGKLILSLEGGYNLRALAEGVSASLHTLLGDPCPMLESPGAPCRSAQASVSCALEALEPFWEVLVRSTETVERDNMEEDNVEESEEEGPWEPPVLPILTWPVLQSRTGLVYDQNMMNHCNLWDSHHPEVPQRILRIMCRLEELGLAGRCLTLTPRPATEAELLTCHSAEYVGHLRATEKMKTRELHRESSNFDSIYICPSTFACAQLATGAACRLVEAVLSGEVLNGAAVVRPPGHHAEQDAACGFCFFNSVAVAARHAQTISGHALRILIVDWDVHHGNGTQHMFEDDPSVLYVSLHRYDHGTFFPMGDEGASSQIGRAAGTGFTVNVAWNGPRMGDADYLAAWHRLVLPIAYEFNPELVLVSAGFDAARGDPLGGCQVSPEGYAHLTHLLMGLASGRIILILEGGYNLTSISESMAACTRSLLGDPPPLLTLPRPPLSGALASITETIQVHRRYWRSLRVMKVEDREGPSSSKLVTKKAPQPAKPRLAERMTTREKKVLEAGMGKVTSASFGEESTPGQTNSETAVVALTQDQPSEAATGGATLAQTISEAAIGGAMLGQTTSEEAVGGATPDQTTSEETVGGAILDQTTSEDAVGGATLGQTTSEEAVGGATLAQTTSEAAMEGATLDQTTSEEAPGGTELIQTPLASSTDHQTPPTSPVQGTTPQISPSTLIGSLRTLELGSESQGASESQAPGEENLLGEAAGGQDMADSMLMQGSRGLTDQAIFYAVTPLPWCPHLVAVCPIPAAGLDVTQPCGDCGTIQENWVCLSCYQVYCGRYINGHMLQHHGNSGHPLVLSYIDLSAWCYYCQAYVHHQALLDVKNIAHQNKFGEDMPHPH

Compound | IC50 [1] [µM] | IC50 [2] [µM] | IC50 [3] [µM] | IC50 [4] [µM] | IC50 at 72 h [5] [µM] | IC50 at 72 h [6] [µM] | IC50 [7] [µM] | IC50 [8] [µM] | IC50 [9] [µM] | IC50 [10] [µM] | IC50 [11] [µM] | IC50 [12] [µM] | IC50 [13] [µM] | IC50 [14] [µM]
O=C(NO)c1ccc(Cn2c(=O)n(CCc3ccccc3)c(=O)c3ccc(F)cc32)cc1 [Compound 1, 4-((7-fluoro-2,4-dioxo-3-phenethyl-3,4-dihydroquinazolin-1(2H)-yl)methyl)-N-hydroxybenzamide] | 0.008 | 9.41 | 15.4 | 0.095 |  |  |  |  |  |  |  |  |  | 
COc1ccc2c(=O)n(CCc3ccccc3)c(=O)n(Cc3ccc(C(=O)NO)cc3)c2c1 [Compound 2, N-hydroxy-4-((7-methoxy-2,4-dioxo-3-phenethyl-3,4-dihydroquinazol-1(2H)-yl)methyl)benzamide] | 0.051 | 12 |  | 0.731 | > 10 | > 200 | > 10 | > 10 | > 10 | > 10 | > 10 |  |  | 
N#Cc1ccc2c(=O)n(CCc3ccccc3)c(=O)n(Cc3cccc(C(=O)NO)c3)c2c1 [Compound 7, 3-((7-cyano-2,4-dioxo-3-phenethyl-3,4-dihydroquinazolin-1(2H)-yl)methyl)-N-hydroxybenzamide] | 4.45 | > 10 |  | 0.235 |  |  |  |  |  |  |  |  |  | 
Cn1c(=O)c2ccc(Cl)cc2n(Cc2ccc(C(=O)NO)cc2)c1=O [Compound 10, 4-((7-chloro-3-methyl-2,4-dioxo-3,4-dihydroquinazolin-1(2H)-yl)methyl)-N-hydroxybenzamide] | 0.004 | 2.72 |  | 0.523 | 93.24 ± 0.37 | 85.33 ± 0.34 | 8.15 ± 0.17 | 6.65 ± 0.22 | 7.63 ± 0.12 | 4.72 ± 0.16 | 9.04 ± 0.21 |  |  | 
O=C(NO)c1ccc(Cn2c(=O)n(Cc3ccccc3)c(=O)c3ccccc32)cc1 [Compound 11, 4-((3-benzyl-2,4-dioxo-3,4-dihydroquinazolin-1(2H)-yl)methyl)-N-hydroxybenzamide] | 0.024 | 15.8 | 37.5 | 0.486 | 97.25 ± 0.31 | 89.18 ± 0.62 | 4.78 ± 0.11 | 4.39 ± 0.07 | 4.08 ± 0.11 | 2.93 ± 0.62 | 6.13 ± 0.17 |  |  | 
O=C(Cc1ccc(Cn2c(=O)n(CCc3ccccc3)c(=O)c3ccccc32)cc1)NO [Compound 16, 2-(4-((2,4-dioxo-3-phenethyl-3,4-dihydroquinazolin-1(2H)-yl)methyl)phenyl)-N-hydroxyacetamide] |  |  |  |  | 160.3 ± 0.23 | 163.2 ± 0.27 | 7.07 ± 0.42 | 6.99 ± 1.07 | 6.28 ± 0.12 | 6.05 ± 0.31 | 8.73 ± 0.24 | 2.77 ± 0.04 | 3.04 ± 0.08 | 3.29 ± 0.16
O=C(NO)c1ccc(Cn2c(=O)n(CCc3ccccc3O)c(=O)c3ccccc32)cc1 [Compound 18, N-hydroxy-4-((3-(2-hydroxyphenethyl)-2,4-dioxo-3,4-dihydroquinazolin-1(2H)-yl)methyl)benzamide] | 0.006 | 8.83 | 16.7 | 0.4 |  |  |  |  |  |  |  |  |  | 
O=C(Cc1ccc(Cn2c(=O)n(CCc3ccccc3)c(=O)c3ccccc32)c(F)c1)NO [Compound 19, 2-(4-((2,4-dioxo-3-phenethyl-3,4-dihydroquinazolin-1(2H)-yl)methyl)-3-fluorophenyl)-N-hydroxyacetamide] |  |  |  |  | 37.82 ± 0.03 | 32.7 ± 0.03 | 2.98 ± 0.12 | 2.75 ± 0.02 | 2.64 ± 0.04 | 1.87 ± 0.18 | 4.29 ± 0.08 | 1.68 ± 0.09 | 1.87 ± 0.03 | 1.74 ± 0.08
O=C(NO)c1ccc(Cn2c(=O)n(CCc3ccccc3)c(=O)c3ccsc32)cc1 [Compound 21, 4-((2,4-dioxo-3-phenethyl-3,4-dihydrothieno[2,3-d]pyrimidin-1(2H)-yl)methyl)-N-hydroxybenzamide] | 0.015 | 6.66 | 5.69 | 0.169 | 81.51 ± 0.18 | 63.11 ± 0.17 | 3.22 ± 0.31 | 3.55 ± 0.14 | 2.93 ± 0.13 | 0.98 ± 0.06 | 4.72 ± 0.37 |  |  | 
O=C(NO)c1ccc(Cn2c(=O)n(CCc3cccs3)c(=O)c3ccccc32)cc1 [Compound 24, 4-((2,4-dioxo-3-(2-(thiophen-2-yl)ethyl)-3,4-dihydroquinazolin-1(2H)-yl)methyl)-N-hydroxybenzamide] | 0.011 | 10.7 | 10 | 0.287 | 76.31 ± 0.32 | 60.41 ± 0.22 | 4.69 ± 0.17 | 4.11 ± 0.27 | 4.18 ± 0.22 | 3.83 ± 0.17 | > 10 |  |  | 
CNc1ccc(CCn2c(=O)c3ccccc3n(Cc3ccc(C(=O)NO)cc3)c2=O)cc1 [Compound 29, N-hydroxy-4-((3-(4-(methylamino)phenethyl)-2,4-dioxo-3,4-dihydroquinazolin-1(2H)-yl)methyl)benzamide] | 0.025 | 4.38 | 3.8 | 1.42 |  |  |  |  |  |  |  |  |  | 
O=C(NO)c1ccc(Cn2c(=O)n(CCc3ccc(N4CCOCC4)cc3)c(=O)c3ccccc32)cc1 [Compound 30, N-hydroxy-4-((3-(4-morpholinophenethyl)-2,4-dioxo-3,4-dihydroquinazolin-1(2H)-yl)methyl)benzamide] | 0.014 | 9.79 | 22.8 | 0.979 |  |  |  |  |  |  |  |  |  | 

The next lines start with results.

IC50 [1] [µM] | IC50 [2] [µM] | IC50 [3] [µM] | IC50 [4] [µM] | IC50 at 72 h [5] [µM] | IC50 at 72 h [6] [µM] | IC50 [7] [µM] | IC50 [8] [µM] | IC50 [9] [µM] | IC50 [10] [µM] | IC50 [11] [µM] | Compound | IC50 [12] [µM] | IC50 [13] [µM] | IC50 [14] [µM]
4.3 | > 10 | > 10 | 0.653 | 78.42 ± 0.22 | 69.23 ± 0.27 | 4.03 ± 0.12 | 3.41 ± 0.34 | 3.75 ± 0.13 | 3.4 ± 0.21 | 5.12 ± 0.32 | O=C(NO)c1cccc(Cn2c(=O)n(CCc3ccccc3)c(=O)c3ccccc32)c1 [Compound 6, 3-((2,4-dioxo-3-phenethyl-3,4-dihydroquinazolin-1(2H)-yl)methyl)-N-hydroxybenzamide] |  |  | 
0.028 | 11.2 | 25.1 | 1.07 | 166.4 ± 0.39 | 159.1 ± 0.44 | > 10 | > 10 | 9.12 ± 0.23 | 7.53 ± 0.23 | > 10 | O=C(NO)c1ccc(Cn2c(=O)n(CCc3ccccc3)c(=O)c3cccnc32)cc1 [Compound 12, 4-((2,4-dioxo-3-phenethyl-3,4-dihydropyrido[2,3-d]pyrimidin-1(2H)-yl)methyl)-N-hydroxybenzamide] |  |  | 
 |  |  |  | > 200 | > 200 | > 10 | 7.43 ± 0.27 | 9.67 ± 0.66 | 9.97 ± 0.08 | > 10 | O=C(NO)C(F)(F)c1ccc(Cn2c(=O)n(CCc3ccccc3)c(=O)c3ccccc32)cc1 [Compound 20, 2-(4-((2,4-dioxo-3-phenethyl-3,4-dihydroquinazolin-1(2H)-yl)methyl)phenyl)-2,2-difluoro-N-hydroxyacetamide] |  |  | 
1.19 | > 30 | 129 | 1.19 | 106.3 ± 0.29 | 105.1 ± 0.25 | 6.25 ± 0.33 | 5.31 ± 0.37 | 5.23 ± 0.21 | 5.77 ± 0.46 | 8.13 ± 0.28 | O=C(NO)c1cc(Cn2c(=O)n(CCc3ccccc3)c(=O)c3ccccc32)cs1 [Compound 25, 4-((2,4-dioxo-3-phenethyl-3,4-dihydroquinazolin-1(2H)-yl)methyl)-N-hydroxythiophene-2-carboxamide] |  |  | 
0.168 | 14.5 | 10.5 | 3.06 |  |  |  |  |  |  |  | O=C(NO)c1ccc(Cn2c(=O)n(CCc3ccccc3)c(=O)c3ccc(C4CC4)cc32)cc1 [Compound 27, 4-((7-cyclopropyl-2,4-dioxo-3-phenethyl-3,4-dihydroquinazolin-1(2H)-yl)methyl)-N-hydroxybenzamide] |  |  | 
